According to patent US8685936B2, “Sphingosine kinase inhibitor prodrugs” (Apogee Biotechnology Corporation, priority 2009, dated 2014):
“Also recorded” adds a separate entry of the source.

How the values were obtained:
[1] = system: DSS-colitis model; experiment: Acute DSS-colitis model of inflammatory bowel disease; type: in vivo, C57BL/6 mice
Method: FIG. 7. Effects of Compound 1 and Compound 2 on the Disease Activity Index (DAI) in the acute DSS-colitis model. […] After 6 days, the DAI was calculated for each group. Values represent the mean±std. dev. for 5-6 mice per group. […] FIG. 8. Effects of Compound 1 and Compound 2 on colon length in the acute DSS-colitis model. […] After 6 days, the animals were sacrificed and the length of the colon was measured. Values represent the mean±std. dev. for 6-7 mice per group. In this model, colon length decreases as the disease progresses. […] FIG. 9. Effects of Compound 1 and Compound 2 on neutrophil infiltration into the colon in the acute DSS-colitis model. […] After 6 days, the animals were sacrificed and the colons were harvested. Myeloperoxidase activity (MPO) was measured and normalized by the protein concentration of the samples. Values represent the mean±std. dev. for 6-7 mice per group. In this model, MPO activity in the colon increases as a result of neutrophil infiltration into the colon as the disease progresses. […] FIG. 10. Effects of ester prodrugs on colon length in the acute DSS-colitis model. C57BL/6 mice were treated for 6 days as follows: 2% DSS in the drinking water and daily oral administration of Vehicle (described in FIG. 7); or 2% DSS in the drinking water and oral administration of 50 mg/kg the indicated ester prodrugs in Vehicle. After 6 days, the animals were sacrificed and the length of the colon was measured. Values represent the mean±std. dev. for 4-5 mice per group. In this model, colon length decreases as the disease progresses. […] FIG. 11. Effects of ester prodrugs on neutrophil infiltration into the colon in the acute DSS-colitis model. C57BL/6 mice were treated for 6 days as follows: 2% DSS in the drinking water and daily oral administration of Vehicle (described in FIG. 7); or 2% DSS in the drinking water and oral administration of 50 mg/kg the indicated ester prodrugs in Vehicle. After 6 days, the animals were sacrificed and the length of the colon was measured. Values represent the mean±std. dev. for 4-5 mice per group. In this model, MPO activity in the colon increases as a result of neutrophil infiltration into the colon as the disease progresses. […] In these experiments, male C57BL/6 mice were provided with standard rodent diet and water ad libitum. After their acclimation, the animals were randomly divided into groups of 5 or 6 for DSS (40,000 MW from ICN Biomedicals, Inc., Aurora, Ohio)- and drug-treatment. The Compounds were dissolved in a Vehicle consisting of 46.7% PEG 400, 46.7% of a solution of 0.375% Tween 80 in saline and 6.6% ethanol, and given once daily (starting on Day 0) by oral gavage in a volume of 0.1 mL per dose. The mice were given normal drinking water or 2% DSS (starting on Day 0) and treated orally with Compound 1 or Compound 2 at a dose of 50 mg/kg daily. The body weight of each animal was measured each day, and the Disease Activity Index (DAI) was scored for each animal on Day 6. On Day 6, the animals were sacrificed by cervical dislocation and the entire colon was removed and measured to the nearest 0.1 cm. The distal 3 cm of the colons were used for biochemical analyses of inflammation markers.

[2] = system: esterases in mouse plasma; experiment: Conversion of ester prodrugs to Compound 1 by mouse plasma (HPLC); type: in vitro ADME
Method: FIG. 2. Chromatogram of Compound 2. Purified Compound 2 was analyzed by high-performance liquid chromatography using a Waters 2795 system equipped with a photodiode array detector. Separations were conducted using a Nova-Pak C18 column (3.9×150 mm, Waters) eluted isocratically with a mobile phase that consisted of 65% Solvent A (methanol containing 0.1% formic acid) and 35% Solvent B (5% acetonitrile and 95% water containing 0.1% formic acid) at a flow rate of 0.6 mL/min. Compound 2 was detected by its absorbance at the wavelength of 265 nm.
FIG. 3. Conversion of Compound 2 to Compound 1 by plasma enzymes. Purified Compound 2 was incubated with mouse plasma for 5 minutes at room temperature. The sample was then extracted and analyzed by high-performance liquid chromatography as described for FIG. 2.
Prodrugs are compounds that are converted to a biologically active metabolite through the action of enzymes in the body. […] When Compound 2 was incubated with plasma isolated from mouse blood at room temperature for 5 minutes and then analyzed by a similar HPLC process, the peak corresponding to Compound 2 was reduced by more than 95%, and new compounds that eluted with retention times consistent with the monoester of Compound 1, i.e. one of the acetyl esters had been removed, and Compound 1 itself, i.e. both of the acetyl esters had been removed (FIG. 3). […]

CC(=O)Oc1ccc(CCNC(=O)C23CC4CC(C2)CC(c2ccc(Cl)cc2)(C4)C3)cc1OC(C)=O [Compound 2, Acetic acid 2-acetoxy-5-(2-{[3-(4-chlorophenyl)-adamantane-1-carbonyl]-amino}ethyl)phenyl ester]
Disease Activity Index (DAI) ([1]; 2% DSS in drinking water, 50 mg/kg daily oral, Day 6, C57BL/6 mice, 50 mg/kg): reduced the intensity of the IBD manifestations; also recorded: superior to Compound 1 in reducing the DAI | colon myeloperoxidase (MPO) activity (neutrophil infiltration) ([1]; 2% DSS, 50 mg/kg daily oral, Day 6, C57BL/6 mice (Example 16, FIG. 9), 50 mg/kg): markedly attenuated; also recorded: reduced to a greater extent | colon length (contraction of the colon), ester prodrugs ([1]; 2% DSS, 50 mg/kg oral, 6 days, C57BL/6 mice, 4-5 per group (Example 17, FIG. 10)): effective in preventing the contraction of the colons | colon length ([1]; 2% DSS, 50 mg/kg oral, Day 6, C57BL/6 mice (Example 16, FIG. 8), 50 mg/kg): colons of significantly longer length; also recorded: superior to the protective effect of Compound 1 | reduction of the HPLC peak corresponding to Compound 2 ([2]; incubated with mouse plasma at room temperature for 5 minutes): more than 95% | cleavage of the esters / conversion to Compound 1 by mouse plasma ([2]; mouse plasma, room temperature, 5 minutes, HPLC): rapidly convert Compound 2 into Compound 1
